Reference: ChEMBL document CHEMBL3596107, “Design, synthesis and evaluation of a series of acyclic fleximer nucleoside analogues with anti-coronavirus activity” (Bioorg Med Chem Lett, 2015)

Columns and labels:
[1] = Cytotoxicity against mock-infected African green monkey Vero118 cells assessed as inhibition of cell survival after 5 days by microscopic analysis; format: cell-based; details: chlorocebus sabaeus; for CC50: 120 h
[2] = Antiviral activity against Human coronavirus NL63 infected in African green monkey Vero118 cells assessed as inhibition of virus-induced cytopathic effect after 5 days by microscopic analysis; format: functional; details: Human coronavirus NL63, 120 h
[3] = system: Middle East respiratory syndrome-related coronavirus; test: Antiviral activity against MERS-CoV EMC/2012 infected in African green monkey Vero cells assessed as inhibition of virus-induced cytopathic effect after 3 days by CellTiter 96 AQueous Non-Radioactive Cell Proliferation Assay; format: functional, cell-based; details: EMC/2012, Vero, 72 h
[4] = system: Middle East respiratory syndrome-related coronavirus; test: Antiviral activity against MERS-CoV EMC/2012 infected in human HuH7 cells assessed as inhibition of virus-induced cytopathic effect after 2 days by CellTiter 96 AQueous Non-Radioactive Cell Proliferation Assay; format: functional, cell-based; details: EMC/2012, Huh-7, 48 h
[5] = Cytotoxicity against mock-infected human HuH7 cells assessed as inhibition of cell survival after 2 days by CellTiter 96 AQueous Non-Radioactive Cell Proliferation Assay; format: cell-based; details: huh-7, 48 h
[6] = Antiviral activity against SARS-CoV Frankfurt 1 infected in African green monkey Vero E6 cells assessed as inhibition of virus-induced cytopathic effect after 3 days by CellTiter 96 AQueous Non-Radioactive Cell Proliferation Assay; format: functional, cell-based, SARS coronavirus Frankfurt 1
[7] = Cytotoxicity against mock-infected African green monkey Vero E6 cells assessed as inhibition of cell survival after 3 days by CellTiter 96 AQueous Non-Radioactive Cell Proliferation Assay; format: cell-based; details: chlorocebus sabaeus, vero c1008, 72 h
Vero = test: Cytotoxicity against mock-infected African green monkey Vero cells assessed as inhibition of cell survival after 3 days by CellTiter 96 AQueous Non-Radioactive Cell Proliferation Assay; format: cell-based; details: chlorocebus sabaeus, 72 h
SARS-CoV = test: Antiviral activity against SARS-CoV assessed as inhibition of viral replication; format: functional, Severe acute respiratory syndrome-related coronavirus

SMILES | CC50 [1] [µM] | EC50 [2] [µM] | EC50 [3] [µM] | EC50 [4] [µM] | CC50 [5] [µM] | EC50 ([6]; vero e6) | CC50 [7] [µM] | CC50 (Vero) [µM] | CC50 at 120 h ([1]; mock-infected Vero118 cells) [µM] | EC50 ([6]; Severe acute respiratory syndrome-related coronavirus, Vero C1008, 72 h, read-out: EC50) [µM] | INH (SARS-CoV) [µg/mL]
OCCOCn1cnc(-c2cnc(O)nc2O)c1 | > 200 | 92 |  |  |  |  |  |  |  |  | 
COc1nc(N)ncc1-c1cn(COCCO)cn1 | 120 | 8.8 | 23 | 27 | 149 | Not Active | 138 | 71 |  |  | 
Nc1ncc(-c2cn(COCCO)cn2)c(O)n1 | > 200 | > 200 |  |  |  |  |  |  |  |  | 
Nc1nc2c(ncn2COCCO)c(=O)[nH]1 [ACYCLOVIR] |  | > 100 | > 1000 | > 1000 | > 1000 |  | > 1000 | > 1000 | > 100 | > 1000 | 
NC(=O)c1ncn([C@@H]2O[C@H](CO)[C@@H](O)[C@H]2O)n1 [RIBAVIRIN] |  |  |  |  |  |  |  |  |  |  | 500
